These results are taken from patent publication US12370157B2, “Method for the treatment of COVID-19 infections with palmitoylethanolamide” (Epitech Group S.p.A., priority 2021, dated 2025).

The data set can be described thus: Plasma levels of the two forms of PEA. The conditions noted are these: in vivo.

As to `CCCCCCCCCCCCCCCC(=O)NCCO` [PEA-um, palmitoylethanolamide], the “Plasma levels, PEA-um compared with PEA-m” value is “substantially the same”.
